# Measurements: patent US20020018778A1, “Passive desensitization” (priority 1999, published 2002)
# Tested on: serum IgE from mice sensitized to recombinant Ara h 2
# Test: IgE immunoblot mapping of murine IgE binding epitopes in Ara h 2
# Conditions: mouse Ara h 2 epitopes; densitometric analysis of the blot
# Description: (§1) IGE IMMUNOBLOT ANALYSIS: Membranes to be blotted were prepared either by SDS-PAGE (performed by the method of Laemmli Nature 227:680-685, 1970; incorporated herein by reference) of digested peanut antigen or by synthesis of antigen peptides on a derivativized cellulose membrane. SDS-PAGE gels were composed of 10% acrylamide resolving gel and 4% acrylamide stacking gel. Electrophoretic transfer and immunoblotting on nitrocellulose paper was performed by the procedures of Towbin (Proc. Natl. Acad. Sci. USA 76:4350-4354, 1979; incorporated herein by reference).
# For mapping of murine IgE binding sites, a blot containing overlapping 13 mer peptides, offset by 2 amino acids, was incubated with serum from peanut sensitized mice as described in U.S. patent application Ser. No. 09/455,294, filed Dec. 6, 1999; incorporated herein by reference.
# PEPTIDE SYNTHESIS: Individual peptides were synthesized on a derivativized cellulose membrane using Fmoc amino acid active esters according to the manufacturer's instructions (Genosys Biotechnologies, Woodlands, Tex.). Fmoc-amino acid derivatives were dissolved in 1-methyl-2-pyrrolidone and loaded on marked spots on the membrane. Coupling reactions were followed by acetylation with a solution of 4% (v/v) acetic anhydride in N,N-dimethyl formamide (DMF). After acetylation, Fmoc groups were removed by incubation of the membrane in 20% (v/v) piperdine in DMF. […]
row,Sequence,"contribution to the observed IgE reactivity, single epitope"
1,RCQSQLERA [mouse Ara h 2 epitope (3)],about 15%

# Tested on: serum IgE from patients with documented peanut hypersensitivity
# Test: IgE immunoblot mapping of human IgE binding epitopes on synthesized peanut antigen peptides
# Conditions: Ara h 3 epitope; 10 patients tested
# Description: as §1
# […] […] At least 5 ml of venous blood was drawn from each patient and allowed to clot, and the serum was collected. All studies were approved by the Human Use Advisory Committee at the University of Arkansas for Medical Sciences. Serum was diluted in a solution containing TBS and 1% bovine serum albumin and incubated with antigen for at least 12 h at 4° C. or for 2 h at room temperature. The bound primary antibody was detected with ^125I-labeled anti-IgE antibody (Sanofi Diagnostics Pasteur Inc., Paris, France).
# PEPTIDE SYNTHESIS: Individual peptides were synthesized on a derivativized cellulose membrane using Fmoc amino acid active esters according to the manufacturer's instructions (Genosys Biotechnologies, Woodlands, Tex.). Fmoc-amino acid derivatives were dissolved in 1-methyl-2-pyrrolidone and loaded on marked spots on the membrane. Coupling reactions were followed by acetylation with a solution of 4% (v/v) acetic anhydride in N,N-dimethyl formamide (DMF). After acetylation, Fmoc groups were removed by incubation of the membrane in 20% (v/v) piperdine in DMF. The membrane was then stained with bromophenol blue to identify the location of the free amino groups. Cycles of coupling, blocking, and deprotection were repeated until the peptides of the desired length were synthesized. After addition of the last amino acid in the peptide, the amino acid side chains were deprotected using a solution of dichloromethane/trifluoroacetic acid/triusobutylsilante (1/10/0.05). Membranes were either probed immediately or stored at −20° C. until needed.
row,Sequence,patients whose serum IgE recognized the epitope
1,VTVRGGLRTLSPDRK [Ara h 3 epitope 3],10

# Same assay, conditions: human IgE binding epitopes in Ara h 3
row,Sequence,FRACTION OF PATIENTS WITH IGE THAT BIND
1,IETWNPNNQEFECAG [Ara h 3 epitope 1],1 (25%)
2,DEDEYEYDEEDRRRG [Ara h 3 epitope 4],4 (38%)
3,GNIFSGFTPEFLEQA [Ara h 3 epitope 2],2 (38%)
4,VTVRGGLRTLSPDRK [Ara h 3 epitope 3],3 (100%)

# Tested on: T cell preparations
# Test: T cell stimulation by 5/20 native Ara h 2 peptides
# Assay type: cell-based, human
# Conditions: analysis of 15 patients
# Description: Each peptide was tested, using standard techniques, on 19 different T cell preparations. Positive scores, defined as a T cell stimulation index of >2, are indicated by shading.
# Each of these peptides was tested for its ability to stimulate T cells. Each peptide was tested, using standard techniques, on 19 different T cell preparations. Positive scores, defined as a T cell stimulation index of >2, are indicated by shading.
# As discussed herein, it may sometimes be desirable to prepare blocking agent compositions comprising antigen fragments (e.g., IgE binding site and one or more T cell epitopes).
row,Sequence,single IgE site and T cell epitope in the same peptide
1,ALALFLLAAHASARQQWELQ [Peptide 2],both a single IgE site and a T cell epitope recognized by at least one person
2,LMQKIQRDEDSYERDPYSPS [Peptide 10],both a single IgE site and a T cell epitope recognized by at least one person
3,PCEQHLMQKIQRDEDSYERD [Peptide 9],both a single IgE site and a T cell epitope recognized by at least one person
4,RANLRPCEQHLMQKIQRDED [Peptide 8],both a single IgE site and a T cell epitope recognized by at least one person
5,LTILVALALFLLAAHASARQ [Peptide 1],both a single IgE site and a T cell epitope recognized by at least one person
6,LLAAHASARQQWELQGDRRC [Peptide 3],both a single IgE site and a T cell epitope recognized by at least one person
